Measurements reported in PubChem BioAssay AID1259407 (Chemical Carcinogenesis Research Information System (CCRIS), 2018).
Entries after “also recorded” stand apart in the source; their conditions may differ. Activity calls are given as the source filed them. How the calls were made is not given here.

System: CCRIS mutagenicity, Ames/micronucleus/aberration tests
Test: CCRIS mutagenicity studies

COc1cc2c(c3oc(=O)c4c(c13)CCC4=O)[C@@H]1C=CO[C@@H]1O2
mutagenic call (Test System: AMES SALMONELLA TYPHIMURIUM, Strain/Indicator: TA100, Metabolic Activation: MOUSE, LIVER, MICROSOMES, BENZO[E]PYRENE AND TCDD, Method: STANDARD PLATE): active; positive
mutagenic call (Test System: AMES SALMONELLA TYPHIMURIUM, Strain/Indicator: TA100, Metabolic Activation: RABBIT, LUNG, CLARA CELL-RICH FRACTION, Method: PREINCUBATION): active; positive
mutagenic call (Test System: AMES SALMONELLA TYPHIMURIUM, Strain/Indicator: TA100, Metabolic Activation: RAT LIVER S-9, DELOR 103, Method: STANDARD PLATE): active; positive
mutagenic call (Test System: AMES SALMONELLA TYPHIMURIUM, Strain/Indicator: TA100, Metabolic Activation: RAT LIVER S-9, DELOREM 103, Method: STANDARD PLATE): active; positive
mutagenic call (Test System: AMES SALMONELLA TYPHIMURIUM, Strain/Indicator: TA100, Metabolic Activation: RAT, LIVER, MICROSOMES, PHENOBARBITAL, Method: STANDARD PLATE): active; positive
mutagenic call (Test System: AMES SALMONELLA TYPHIMURIUM, Strain/Indicator: TA100, Metabolic Activation: RAT, LIVER, S-9, ACRYLAMIDE, Method: STANDARD PLATE): active; positive
mutagenic call (Test System: AMES SALMONELLA TYPHIMURIUM, Strain/Indicator: TA100, Metabolic Activation: RAT, LIVER, S-9, AROCLOR 1254, Method: MICROSUSPENSION): active; positive
mutagenic call (Test System: AMES SALMONELLA TYPHIMURIUM, Strain/Indicator: TA100, Metabolic Activation: RAT, LIVER, S-9, AROCLOR 1254, Method: PREINCUBATION): active; positive
mutagenic call (Test System: AMES SALMONELLA TYPHIMURIUM, Strain/Indicator: TA100, Metabolic Activation: RAT, LIVER, S-9, AROCLOR 1254, Method: STANDARD PLATE): active; positive
mutagenic call (Test System: AMES SALMONELLA TYPHIMURIUM, Strain/Indicator: TA100, Metabolic Activation: RAT, LIVER, S-9, PHENOBARBITAL, Method: PREINCUBATION): active; positive
mutagenic call (Test System: AMES SALMONELLA TYPHIMURIUM, Strain/Indicator: TA100, Metabolic Activation: RAT, LIVER, S-9, PHENOBARBITAL, Method: STANDARD PLATE): active; positive
mutagenic call (Test System: AMES SALMONELLA TYPHIMURIUM, Strain/Indicator: TA1538, Metabolic Activation: RAT, LIVER, S-9, AROCLOR 1254, Method: STANDARD PLATE): active; positive
mutagenic call (Test System: Ames Salmonella typhimurium, Strain/Indicator: TA98, Metabolic Activation: Rat, Liver, S-9, Aroclor 1254, Method: Preincubation): active; positive (decrease in mutagenicity when 0.99-15.90 mg/plate of chloroform extrac; also recorded: active; positive (decrease in mutagenicity when 0.46-7.30 mg/plate of methanol extract o
mutagenic call (Test System: Ames Salmonella typhimurium, Strain/Indicator: TA100, Metabolic Activation: Rat, Liver, S-9, Aroclor 1254, Method: Preincubation): active; positive (decrease in mutagenicity when 0.46-7.30 mg/plate of methanol extract o
mutagenic call (Test System: CHINESE HAMSTER V-79, Strain/Indicator: V-79/6-THIOGUANINE, Metabolic Activation: NONE, Method: STANDARD PLATE): inactive; negative
mutagenic call (Test System: CHINESE HAMSTER V-79, Strain/Indicator: V-79/6-THIOGUANINE, Metabolic Activation: RAT, HEPATOCYTES, BUTYLATED HYDROXYANISOLE, Method: STANDARD PLATE): active; positive
mutagenic call (Test System: CHINESE HAMSTER V-79, Strain/Indicator: V-79/6-THIOGUANINE, Metabolic Activation: RAT, HEPATOCYTES, Method: STANDARD PLATE): active; positive
mutagenic call (Test System: CHINESE HAMSTER V-79, Strain/Indicator: V-79/6-THIOGUANINE, Metabolic Activation: RAT, LIVER, S-9, PHENOBARBITAL, Method: STANDARD PLATE): active; positive
mutagenic call (Test System: CHINESE HAMSTER V-79, Strain/Indicator: V-79/OUABAIN, Metabolic Activation: CELL-MEDIATED, Method: STANDARD PLATE): active; positive
mutagenic call (Test System: CHINESE HAMSTER V-79, Strain/Indicator: V-79/OUABAIN, Metabolic Activation: NONE, Method: STANDARD PLATE): inactive; negative
mutagenic call (Test System: CHINESE HAMSTER V-79, Strain/Indicator: V-79/OUABAIN, Metabolic Activation: RAT, HEPATOCYTES, BUTYLATED HYDROXYANISOLE, Method: STANDARD PLATE): active; positive
mutagenic call (Test System: CHINESE HAMSTER V-79, Strain/Indicator: V-79/OUABAIN, Metabolic Activation: RAT, HEPATOCYTES, Method: STANDARD PLATE): active; positive
mutagenic call (Test System: UDS GUINEA PIG HEPATOCYTES, Strain/Indicator: THY INCORP, Metabolic Activation: NONE, Method: AUTORADIOGRAPHY): active; positive
mutagenic call (Test System: UDS HUMAN CELLS, Strain/Indicator: THY INCORP (NON-S-PHASE), Metabolic Activation: RAT, LIVER, S-9, PHENOBARBITAL, Method: LIQUID SCINTILLATION COUNTING): active; positive
mutagenic call (Test System: UDS HUMAN FIBROBLASTS, Strain/Indicator: THY INCORP (NON-S-PHASE), Metabolic Activation: MOUSE, LIVER, S-9, Method: AUTORADIOGRAPHY): active; positive
mutagenic call (Test System: UDS HUMAN FIBROBLASTS, Strain/Indicator: THY INCORP (NON-S-PHASE), Metabolic Activation: NONE, Method: AUTORADIOGRAPHY): active; positive
mutagenic call (Test System: UDS HUMAN FIBROBLASTS, Strain/Indicator: THY INCORP (NON-S-PHASE), Metabolic Activation: NONE, Method: LIQUID SCINTILLATION COUNTING): active; positive
mutagenic call (Test System: UDS HUMAN HEPATOCYTES, Strain/Indicator: THY INCORP, Metabolic Activation: NONE, Method: AUTORADIOGRAPHY): active; positive
mutagenic call (Test System: UDS MONKEY HEPATOCYTES, Strain/Indicator: THY INCORP, Metabolic Activation: NONE, Method: AUTORADIOGRAPHY): active; positive
mutagenic call (Test System: UDS RAT HEPATOCYTES, Strain/Indicator: BROMODEOXYURIDINE INCORP, Metabolic Activation: NONE, Method: FLOW CYTOMETRIC ANALYSIS): active; positive
mutagenic call (Test System: UDS RAT HEPATOCYTES, Strain/Indicator: THY INCORP, Metabolic Activation: AROCLOR 1254, Method: AUTORADIOGRAPHY): active; positive
mutagenic call (Test System: UDS RAT HEPATOCYTES, Strain/Indicator: THY INCORP, Metabolic Activation: NONE, Method: AUTORADIOGRAPHY): active; positive
mutagenic call (Test System: UDS RAT HEPATOCYTES, Strain/Indicator: THY INCORP, Metabolic Activation: NONE, Method: LIQUID SCINTILLATION COUNTING): active; positive
mutagenic call (Test System: UDS RODENT HEPATOCYTES, Strain/Indicator: THY INCORP (NON-S-PHASE), Method: AUTORADIOGRAPHY): active; positive
mutagenic call (Test System: UDS RODENT HEPATOCYTES, Strain/Indicator: THY INCORP (NON-S-PHASE), Method: LIQUID SCINTILLATION COUNTING): active; positive
mutagenic call (Test System: UDS RODENT PRIMARY CELLS, Strain/Indicator: THY INCORP (NON-S-PHASE), Metabolic Activation: NONE, Method: AUTORADIOGRAPHY): active; positive
